Source: ChEMBL document CHEMBL5230137, “4-(3H)-quinazolinones N-3 substituted with a five membered heterocycle: A promising scaffold towards bioactive molecules” (Eur J Med Chem, 2021)
≈ marks a conversion by molar mass, not a printed value. Each block holds one molecule with its values, some of them ahead of it.

Columns and labels:
[1] = test system: Staphylococcus aureus; assay: Bactericidal activity against Staphylococcus aureus; assay type: functional
[2] = Acute toxicity in po dosed Swiss albino mouse measured after 24 hrs; assay type: organism-based; details: in vivo
[3] = biological target: T1, Thermolysin (Bacillus thermoproteolyticus, UniProt P00800); assay: Binding affinity to Bacillus thermoproteolyticus Thermolysin assessed as inhibition constant by Cheng-Prusoff equation analysis
T1 sequence (P00800 whole entry): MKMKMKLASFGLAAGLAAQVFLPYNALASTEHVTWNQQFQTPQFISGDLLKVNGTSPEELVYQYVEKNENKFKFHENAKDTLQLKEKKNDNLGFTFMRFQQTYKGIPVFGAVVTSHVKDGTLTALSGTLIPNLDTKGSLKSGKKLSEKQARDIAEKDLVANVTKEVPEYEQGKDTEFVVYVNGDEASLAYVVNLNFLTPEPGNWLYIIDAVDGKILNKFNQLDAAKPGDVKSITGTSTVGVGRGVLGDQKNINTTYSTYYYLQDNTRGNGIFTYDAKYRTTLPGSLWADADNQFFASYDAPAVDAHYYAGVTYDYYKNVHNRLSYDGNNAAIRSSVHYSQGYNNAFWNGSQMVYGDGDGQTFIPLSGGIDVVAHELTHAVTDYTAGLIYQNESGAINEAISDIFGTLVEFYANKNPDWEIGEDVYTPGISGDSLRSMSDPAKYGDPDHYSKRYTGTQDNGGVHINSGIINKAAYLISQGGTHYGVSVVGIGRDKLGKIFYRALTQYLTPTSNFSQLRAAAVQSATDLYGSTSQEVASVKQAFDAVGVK

[4] = biological target: T1, Thermolysin; assay: Inhibition of Bacillus thermoproteolyticus Thermolysin
[5] = test system: Staphylococcus aureus; assay: Antimicrobial activity against Staphylococcus aureus by CLSI method; assay type: functional
[6] = test system: Pseudomonas aeruginosa; assay: Antimicrobial activity against Pseudomonas aeruginosa by CLSI method; assay type: functional
[7] = test system: Escherichia coli; assay: Antibacterial activity against Escherichia coli by CLSI method; assay type: functional
[8] = test system: Bacillus subtilis; assay: Antimicrobial activity against Bacillus subtilis by CLSI method; assay type: functional
[9] = test system: Candida albicans; assay: Fungicidal activity against Candida albicans; assay type: functional
[10] = test system: Aspergillus niger; assay: Fungicidal activity against Aspergillus niger; assay type: functional
[11] = test system: Aspergillus clavatus; assay: Fungicidal activity against Aspergillus clavatus; assay type: functional
[12] = test system: Escherichia coli; assay: Bactericidal activity against Escherichia coli; assay type: functional
[13] = test system: Pseudomonas aeruginosa; assay: Bactericidal activity against Pseudomonas aeruginosa; assay type: functional
[14] = biological target: COX-1/COX-2 (Homo sapiens) (UniProt P35354+P23219); assay: Selectivity index, ratio of IC50 for human COX-1 to IC50 for human COX-2; assay type: protein assay
[15] = biological target: Epidermal growth factor receptor (Homo sapiens, UniProt P00533); assay: Inhibition of wild type human EGFR measured by ELISA analysis
Epidermal growth factor receptor, sequence (P00533 whole entry, canonical isoform): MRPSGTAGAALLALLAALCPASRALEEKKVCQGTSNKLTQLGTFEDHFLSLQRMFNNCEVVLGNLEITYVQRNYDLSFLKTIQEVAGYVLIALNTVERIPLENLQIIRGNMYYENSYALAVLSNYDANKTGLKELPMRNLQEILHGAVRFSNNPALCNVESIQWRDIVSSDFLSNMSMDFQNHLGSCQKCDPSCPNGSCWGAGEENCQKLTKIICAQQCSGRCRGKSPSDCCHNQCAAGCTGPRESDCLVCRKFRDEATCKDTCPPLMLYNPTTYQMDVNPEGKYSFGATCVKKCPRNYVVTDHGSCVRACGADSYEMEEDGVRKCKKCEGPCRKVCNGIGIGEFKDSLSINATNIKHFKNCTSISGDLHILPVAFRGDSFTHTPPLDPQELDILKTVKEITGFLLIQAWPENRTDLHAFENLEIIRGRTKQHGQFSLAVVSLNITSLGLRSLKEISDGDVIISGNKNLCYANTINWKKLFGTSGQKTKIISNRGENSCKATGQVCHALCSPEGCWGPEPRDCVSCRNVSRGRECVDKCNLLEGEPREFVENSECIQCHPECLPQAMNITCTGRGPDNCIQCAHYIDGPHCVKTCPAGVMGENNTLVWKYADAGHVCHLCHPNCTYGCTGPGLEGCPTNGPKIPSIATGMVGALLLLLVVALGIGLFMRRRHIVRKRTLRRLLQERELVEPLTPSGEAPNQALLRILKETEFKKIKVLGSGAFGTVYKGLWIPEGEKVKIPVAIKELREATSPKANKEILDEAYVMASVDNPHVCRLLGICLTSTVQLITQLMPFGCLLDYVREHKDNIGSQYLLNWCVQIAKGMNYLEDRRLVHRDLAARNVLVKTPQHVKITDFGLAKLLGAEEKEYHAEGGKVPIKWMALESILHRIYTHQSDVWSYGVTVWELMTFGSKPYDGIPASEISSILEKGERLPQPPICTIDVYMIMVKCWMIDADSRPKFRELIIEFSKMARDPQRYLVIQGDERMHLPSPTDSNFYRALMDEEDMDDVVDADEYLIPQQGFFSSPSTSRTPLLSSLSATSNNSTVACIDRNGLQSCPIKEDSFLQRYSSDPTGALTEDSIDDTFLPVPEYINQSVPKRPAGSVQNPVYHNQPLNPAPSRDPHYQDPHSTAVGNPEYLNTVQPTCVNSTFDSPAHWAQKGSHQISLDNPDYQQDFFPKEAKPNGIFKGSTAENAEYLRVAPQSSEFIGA

[16] = biological target: Phosphatidylinositol 4,5-bisphosphate 3-kinase catalytic subunit gamma isoform (Homo sapiens, UniProt P48736); assay: Inhibition of PI3Kgamma (unknown origin) incubated for 90 mins by [gamma-33P]-ATP based scintillation counting method
Phosphatidylinositol 4,5-bisphosphate 3-kinase catalytic subunit gamma isoform, sequence (P48736 whole entry, canonical isoform): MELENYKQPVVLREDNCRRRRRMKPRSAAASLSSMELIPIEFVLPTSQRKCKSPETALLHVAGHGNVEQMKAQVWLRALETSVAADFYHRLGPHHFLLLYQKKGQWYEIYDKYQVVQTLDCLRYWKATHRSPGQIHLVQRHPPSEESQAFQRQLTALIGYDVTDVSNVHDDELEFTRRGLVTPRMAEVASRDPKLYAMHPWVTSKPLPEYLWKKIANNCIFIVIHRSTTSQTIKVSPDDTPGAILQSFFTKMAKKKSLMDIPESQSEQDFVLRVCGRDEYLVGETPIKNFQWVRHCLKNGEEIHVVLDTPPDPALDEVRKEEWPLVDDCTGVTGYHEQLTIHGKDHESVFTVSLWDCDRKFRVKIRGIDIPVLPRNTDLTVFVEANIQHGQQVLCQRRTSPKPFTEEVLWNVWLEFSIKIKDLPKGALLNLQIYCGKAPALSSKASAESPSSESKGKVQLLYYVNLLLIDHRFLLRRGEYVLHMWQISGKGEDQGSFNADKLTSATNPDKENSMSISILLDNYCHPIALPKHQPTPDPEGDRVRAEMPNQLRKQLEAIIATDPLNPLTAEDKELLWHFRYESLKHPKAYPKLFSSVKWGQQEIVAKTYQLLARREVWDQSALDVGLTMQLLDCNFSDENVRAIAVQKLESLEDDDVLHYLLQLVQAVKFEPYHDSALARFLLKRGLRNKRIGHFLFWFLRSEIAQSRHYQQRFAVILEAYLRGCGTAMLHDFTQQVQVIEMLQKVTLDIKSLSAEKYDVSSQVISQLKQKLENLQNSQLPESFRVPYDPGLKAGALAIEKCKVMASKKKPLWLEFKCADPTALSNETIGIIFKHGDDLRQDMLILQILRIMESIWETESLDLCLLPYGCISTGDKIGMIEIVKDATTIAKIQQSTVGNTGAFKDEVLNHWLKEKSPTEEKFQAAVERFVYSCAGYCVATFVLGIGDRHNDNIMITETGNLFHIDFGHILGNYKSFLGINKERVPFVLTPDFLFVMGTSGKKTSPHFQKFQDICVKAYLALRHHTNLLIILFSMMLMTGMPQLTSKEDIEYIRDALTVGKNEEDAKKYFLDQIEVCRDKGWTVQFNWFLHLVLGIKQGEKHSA

[17] = biological target: T2, Phosphatidylinositol 4,5-bisphosphate 3-kinase catalytic subunit delta isoform (Homo sapiens, UniProt O00329); assay: Inhibition of PI3Kdelta (unknown origin) incubated for 90 mins by [gamma-33P]-ATP based scintillation counting method
T2 sequence (O00329 whole entry): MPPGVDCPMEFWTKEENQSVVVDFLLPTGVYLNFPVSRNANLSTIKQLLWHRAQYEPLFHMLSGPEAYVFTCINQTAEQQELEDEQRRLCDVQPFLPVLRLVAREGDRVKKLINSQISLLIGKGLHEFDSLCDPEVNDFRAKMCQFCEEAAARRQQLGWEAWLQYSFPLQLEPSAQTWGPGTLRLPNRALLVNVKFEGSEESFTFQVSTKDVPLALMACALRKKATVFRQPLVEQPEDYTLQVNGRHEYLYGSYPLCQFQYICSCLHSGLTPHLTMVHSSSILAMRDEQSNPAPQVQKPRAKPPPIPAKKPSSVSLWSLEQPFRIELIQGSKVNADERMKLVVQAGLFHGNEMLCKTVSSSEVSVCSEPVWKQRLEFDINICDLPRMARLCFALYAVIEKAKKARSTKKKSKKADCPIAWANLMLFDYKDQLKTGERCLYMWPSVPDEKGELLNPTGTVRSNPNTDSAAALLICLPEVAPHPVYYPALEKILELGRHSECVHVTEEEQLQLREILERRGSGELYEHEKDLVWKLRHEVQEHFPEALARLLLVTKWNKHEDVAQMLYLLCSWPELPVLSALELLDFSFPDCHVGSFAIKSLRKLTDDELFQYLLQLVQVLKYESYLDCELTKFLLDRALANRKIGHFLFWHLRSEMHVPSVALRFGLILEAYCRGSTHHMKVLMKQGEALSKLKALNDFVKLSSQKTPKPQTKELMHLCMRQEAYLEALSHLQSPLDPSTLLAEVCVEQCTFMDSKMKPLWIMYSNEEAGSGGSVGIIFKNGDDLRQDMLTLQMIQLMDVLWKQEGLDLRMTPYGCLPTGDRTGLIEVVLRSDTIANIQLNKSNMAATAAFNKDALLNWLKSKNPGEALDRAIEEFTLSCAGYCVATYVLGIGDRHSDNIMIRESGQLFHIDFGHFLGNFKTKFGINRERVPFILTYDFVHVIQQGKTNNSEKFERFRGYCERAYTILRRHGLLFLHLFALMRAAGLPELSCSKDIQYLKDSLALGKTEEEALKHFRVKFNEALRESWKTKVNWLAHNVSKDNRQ

[18] = Inhibition of PI3Kdelta in Rat1 cells reduction in phosphorylation of AKT at Ser473 residue incubated for 2 hrs by alpha screen assay; assay type: cell-based; details: Rattus norvegicus, Rat1, 2 h
[19] = biological target: Phosphatidylinositol 4,5-bisphosphate 3-kinase catalytic subunit alpha isoform (Homo sapiens, UniProt P42336); assay: Inhibition of PI3Kalpha (unknown origin) incubated for 90 mins by [gamma-33P]-ATP based scintillation counting method
Phosphatidylinositol 4,5-bisphosphate 3-kinase catalytic subunit alpha isoform, sequence (P42336 whole entry, canonical isoform): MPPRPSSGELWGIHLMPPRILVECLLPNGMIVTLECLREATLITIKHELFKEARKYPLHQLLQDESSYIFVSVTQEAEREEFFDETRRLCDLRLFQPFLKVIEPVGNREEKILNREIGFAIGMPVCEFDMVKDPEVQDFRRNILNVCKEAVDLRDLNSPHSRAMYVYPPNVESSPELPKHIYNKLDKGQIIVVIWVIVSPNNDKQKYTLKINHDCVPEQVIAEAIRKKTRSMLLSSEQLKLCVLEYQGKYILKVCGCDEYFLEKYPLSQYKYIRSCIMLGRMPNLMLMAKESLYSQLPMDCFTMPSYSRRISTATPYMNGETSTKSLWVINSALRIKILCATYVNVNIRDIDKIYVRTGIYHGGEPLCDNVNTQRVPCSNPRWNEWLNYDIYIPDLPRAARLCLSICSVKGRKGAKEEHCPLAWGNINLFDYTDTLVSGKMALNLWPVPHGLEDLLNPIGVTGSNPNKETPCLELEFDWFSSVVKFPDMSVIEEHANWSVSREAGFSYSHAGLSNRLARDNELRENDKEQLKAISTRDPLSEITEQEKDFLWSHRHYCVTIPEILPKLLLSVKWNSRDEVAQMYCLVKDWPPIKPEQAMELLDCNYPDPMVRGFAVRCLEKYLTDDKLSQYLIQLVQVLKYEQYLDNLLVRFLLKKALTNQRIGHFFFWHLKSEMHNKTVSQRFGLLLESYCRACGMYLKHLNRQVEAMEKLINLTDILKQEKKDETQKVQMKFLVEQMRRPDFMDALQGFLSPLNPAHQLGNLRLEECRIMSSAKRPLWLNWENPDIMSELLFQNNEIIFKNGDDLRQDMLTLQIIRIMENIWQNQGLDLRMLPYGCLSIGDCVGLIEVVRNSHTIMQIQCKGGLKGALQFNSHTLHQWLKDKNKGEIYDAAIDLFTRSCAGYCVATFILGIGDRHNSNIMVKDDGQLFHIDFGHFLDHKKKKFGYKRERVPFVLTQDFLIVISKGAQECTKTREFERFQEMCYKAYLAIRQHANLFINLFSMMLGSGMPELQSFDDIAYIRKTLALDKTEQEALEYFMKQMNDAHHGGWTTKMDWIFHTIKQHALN

[20] = test system: Ehrlich; assay: Antitumor activity against mouse EAC cells implanted in mouse assessed as decrease in total ascitic volume; assay type: functional; design: scale not given: the % may be the effect or the level left
[21] = test system: Ehrlich; assay: Antitumor activity against mouse EAC cells implanted in mouse assessed as reduction in tumor cell count; assay type: functional; design: scale not given: the % may be the effect or the level left
[22] = test system: K562; assay: Anticancer activity against human K562 cells assessed as reduction in cell viability; assay type: functional, cell-based

Compound: CC1(C)S[C@@H]2[C@H](NC(=O)[C@H](N)c3ccccc3)C(=O)N2[C@H]1C(=O)O [AMPICILLIN]
MBC [1]: 250 µg/mL (≈ 715 µM)

Compound: CC1=Cc2ccc(Br)cc2C(=O)C1c1nnc(SCC(=O)N/N=C/c2c(Br)cccc2Br)[nH]1 (centres undefined)
LD [2]: 1400 mg/kg

Compound: O=c1c2ccccc2nc(-c2ccccc2)n1-c1nccs1
Ki [3]: 59.3 µM | IC50 [4]: 76.8 µM

MIC [5]: 79 µg/mL (≈ 185 µM) | MIC [6]: 70 µg/mL (≈ 164 µM) | MIC [7]: 70 µg/mL (≈ 164 µM) | MIC [8]: 75 µg/mL (≈ 176 µM)
Compound: O=c1c2ccccc2nc(/C=C/c2ccccc2)n1-c1nnc(-c2ccc(Cl)cc2)o1

Compound: O=c1c2cc(I)ccc2nc(Cc2ccccc2Nc2c(Cl)cccc2Cl)n1Cc1nnc(-c2ccccc2Cl)o1
MFC [9]: 100 µg/mL (≈ 140 µM) | MFC [10]: 200 µg/mL (≈ 280 µM) | MFC [11]: 200 µg/mL (≈ 280 µM)

Compound: O=c1c2cc(I)ccc2nc(Cc2ccccc2Nc2c(Cl)cccc2Cl)n1Cc1nnc(-c2ccc(Cl)cc2)o1
MBC [12]: 50 µg/mL (≈ 70 µM) | MBC [13]: 150 µg/mL (≈ 210 µM)

Ratio IC50 [14]: 2.55
Compound: O=c1c2cc(Cl)ccc2nc(-c2ccccc2)n1-c1n[nH]c2ccccc12

IC50 [15]: 0.102 µM
Compound: O=c1c2ccc(Cl)cc2nc(-c2ccccc2)n1-c1nnc(-c2ccccc2C2CC2)o1

IC50 [16]: > 10 µM | IC50 [17]: 0.082 µM | IC50 [18]: 2.26 µM | IC50 [19]: > 10 µM
Compound: CN1CCN(C)/C(=N/c2ccc([N+](=O)[O-])cc2C(=O)Nc2ccccc2)C1

IC50 [16]: 1.1 µM | IC50 [17]: 0.14 µM | IC50 [18]: 0.509 µM | IC50 [19]: > 10 µM
Compound: N#Cc1c(N)ncnc1N1CSC[C@H]1c1nc2cccc(Cl)c2c(=O)n1-c1cccs1

Ratio IC50 [14]: 1.05
Compound: O=c1c2cc(Br)ccc2nc(-c2ccccc2)n1-c1n[nH]c2ccccc12

IC50 [18]: > 10 µM
Compound: Cn1nccc1-n1c([C@@H]2CSCN2c2ncnc(N)c2C#N)nc2cccc(Cl)c2c1=O

IC50 [18]: 0.222 µM | IC50 [19]: 9.1 µM
Compound: Cn1nccc1-n1c([C@@H]2CSCN2c2ncnc3[nH]cnc23)nc2cccc(Cl)c2c1=O

Compound: CC1=Cc2ccc(Br)cc2C(=O)C1c1nnc(SCC(=O)NC2C(=O)CSC2c2c(Br)cccc2Br)[nH]1 (centres undefined)
LD [2]: 1400 mg/kg

Compound: O=c1c2cc(I)ccc2nc(Cc2ccccc2Nc2c(Cl)cccc2Cl)n1-c1ccc(-c2nnc(-c3ccc(Cl)cc3)o2)cc1
MBC [1]: 50 µg/mL (≈ 64.4 µM)

Compound: Cc1nc2ccccc2c(=O)n1-c1nnc(S)s1
Activity [20]: 28% | Activity [21]: 12%

Ratio IC50 [14]: 3.59
Compound: Cc1ccc2nc(-c3ccccc3)n(-c3n[nH]c4ccccc34)c(=O)c2c1

IC50 [22]: 1 µM
Compound: O=c1c2ccccc2nc(Cc2ccccc2Nc2c(Cl)cccc2Cl)n1Cc1nnc(-c2ccc(Cl)cc2)o1

IC50 [22]: 1.5 µM
Compound: O=c1c2cc(Br)ccc2nc(Cc2ccccc2Nc2c(Cl)cccc2Cl)n1Cc1nnc(-c2ccc(Cl)cc2)o1
MBC [1]: 50 µg/mL (≈ 74.9 µM)

Compound: O=c1c2cc(Br)ccc2nc(Cc2ccccc2Nc2c(Cl)cccc2Cl)n1-c1nnc(-c2ccccc2Cl)o1
MBC [1]: 50 µg/mL (≈ 76.5 µM)

Compound: O=c1c2ccccc2nc(Cc2ccccc2Nc2c(Cl)cccc2Cl)n1-c1ccc(-c2nnc(-c3ccccc3Cl)o2)cc1
MBC [1]: 50 µg/mL (≈ 76.8 µM)

Compound: O=c1c2cc(I)ccc2nc(Cc2ccccc2Nc2c(Cl)cccc2Cl)n1-c1ccc(-c2nnc(-c3ccccc3Cl)o2)cc1
MBC [1]: 50 µg/mL (≈ 64.4 µM)

IC50 [15]: 0.021 µM
Compound: COc1ccc(-c2nnc(-n3c(-c4ccccc4)nc4cc(Cl)ccc4c3=O)o2)cc1
